Test results published in paper PMC4832243, “Discovery of Potent VEGFR-2 Inhibitors based on Furopyrimidine and Thienopyrimidne Scaffolds as Cancer Targeting Agents” (Scientific Reports, 2016).

What was measured:
Format in all cases: cell-based
TK-10 = assay: NCI 60 cell line panel (SRB), TK-10; details: Homo sapiens; TK-10, Renal Cancer; single dose of 10 μM; read-out: Cell Growth Percent
NCI-H460 = assay: NCI 60 cell line panel (SRB), NCI-H460; details: Homo sapiens; NCI-H460, Non-Small Cell Lung Cancer; single dose of 10 μM; read-out: Cell Growth Percent
UO-31 = assay: NCI 60 cell line panel (SRB), UO-31; details: Homo sapiens; UO-31, Renal Cancer; single dose of 10 μM; read-out: Cell Growth Percent
A549/ATCC = assay: NCI 60 cell line panel (SRB), A549/ATCC; details: Homo sapiens, Non-Small Cell Lung Cancer, single dose of 10 μM, read-out: Cell Growth Percent
EKVX = assay: NCI 60 cell line panel (SRB), EKVX; details: Homo sapiens, Non-Small Cell Lung Cancer, single dose of 10 μM, read-out: Cell Growth Percent
OVCAR-3 = assay: NCI 60 cell line panel (SRB), OVCAR-3; details: Homo sapiens; OVCAR-3, Ovarian Cancer; single dose of 10 μM; read-out: Cell Growth Percent
SN12C = assay: NCI 60 cell line panel (SRB), SN12C; details: Homo sapiens, Renal Cancer, single dose of 10 μM, read-out: Cell Growth Percent
T-47D = assay: NCI 60 cell line panel (SRB), T-47D; details: Homo sapiens, T47D, Breast Cancer, single dose of 10 μM, read-out: Cell Growth Percent
RPMI-8226 = assay: NCI 60 cell line panel (SRB), RPMI-8226; details: Homo sapiens; RPMI-8226, Leukemia; single dose of 10 μM; read-out: Cell Growth Percent
SK-OV-3 = assay: NCI 60 cell line panel (SRB), SK-OV-3; details: Homo sapiens; SK-OV-3, Ovarian Cancer; single dose of 10 μM; read-out: Cell Growth Percent
MDA-MB-468 = assay: NCI 60 cell line panel (SRB), MDA-MB-468; details: Homo sapiens; MDA-MB-468, Breast Cancer; single dose of 10 μM; read-out: Cell Growth Percent
LOX IMVI = assay: NCI 60 cell line panel (SRB), LOX IMVI; details: Homo sapiens, Melanoma, single dose of 10 μM, read-out: Cell Growth Percent
MCF7 = assay: NCI 60 cell line panel (SRB), MCF7; details: Homo sapiens; MCF7, Breast Cancer; single dose of 10 μM; read-out: Cell Growth Percent
MALME-3M = assay: NCI 60 cell line panel (SRB), MALME-3M; details: Homo sapiens, Melanoma, single dose of 10 μM, read-out: Cell Growth Percent
IGROV1 = assay: NCI 60 cell line panel (SRB), IGROV1; details: Homo sapiens, IGROV-1; IGROV1, Ovarian Cancer; single dose of 10 μM; read-out: Cell Growth Percent
BT-549 = assay: NCI 60 cell line panel (SRB), BT-549; details: Homo sapiens; BT-549, Breast Cancer; single dose of 10 μM; read-out: Cell Growth Percent
M14 = assay: NCI 60 cell line panel (SRB), M14; details: Homo sapiens; M14, Melanoma; single dose of 10 μM; read-out: Cell Growth Percent
NCI-H322M = assay: NCI 60 cell line panel (SRB), NCI-H322M; details: Homo sapiens, Non-Small Cell Lung Cancer, single dose of 10 μM, read-out: Cell Growth Percent
KM12 = assay: NCI 60 cell line panel (SRB), KM12; details: Homo sapiens; KM12, Colon Cancer; single dose of 10 μM; read-out: Cell Growth Percent
MDA-MB-435 = assay: NCI 60 cell line panel (SRB), MDA-MB-435; details: Homo sapiens; MDA-MB-435, Melanoma; single dose of 10 μM; read-out: Cell Growth Percent
SK-MEL-28 = assay: NCI 60 cell line panel (SRB), SK-MEL-28; details: Homo sapiens; SK-MEL-28, Melanoma; single dose of 10 μM; read-out: Cell Growth Percent
786-0 = assay: NCI 60 cell line panel (SRB), 786-0; details: Homo sapiens; 786-0, Renal Cancer; single dose of 10 μM; read-out: Cell Growth Percent
SF-295 = assay: NCI 60 cell line panel (SRB), SF-295; details: Homo sapiens; SF-295, CNS Cancer; single dose of 10 μM; read-out: Cell Growth Percent
SK-MEL-2 = assay: NCI 60 cell line panel (SRB), SK-MEL-2; details: Homo sapiens; SK-MEL-2, Melanoma; single dose of 10 μM; read-out: Cell Growth Percent
ACHN = assay: NCI 60 cell line panel (SRB), ACHN; details: Homo sapiens, Renal Cancer, single dose of 10 μM, read-out: Cell Growth Percent
OVCAR-4 = assay: NCI 60 cell line panel (SRB), OVCAR-4; details: Homo sapiens; OVCAR-4, Ovarian Cancer; single dose of 10 μM; read-out: Cell Growth Percent
CAKI-1 = assay: NCI 60 cell line panel (SRB), CAKI-1; details: Homo sapiens; CAKI-1, Renal Cancer; single dose of 10 μM; read-out: Cell Growth Percent
UACC-62 = assay: NCI 60 cell line panel (SRB), UACC-62; details: Homo sapiens; UACC-62, Melanoma; single dose of 10 μM; read-out: Cell Growth Percent
K-562 = assay: NCI 60 cell line panel (SRB), K-562; details: Homo sapiens, K562; K-562, Leukemia; single dose of 10 μM; read-out: Cell Growth Percent
OVCAR-8 = assay: NCI 60 cell line panel (SRB), OVCAR-8; details: Homo sapiens; OVCAR-8, Ovarian Cancer; single dose of 10 μM; read-out: Cell Growth Percent
NCI-H226 = assay: NCI 60 cell line panel (SRB), NCI-H226; details: Homo sapiens; NCI-H226, Non-Small Cell Lung Cancer; single dose of 10 μM; read-out: Cell Growth Percent
HCT-116 = assay: NCI 60 cell line panel (SRB), HCT-116; details: Homo sapiens; HCT-116, Colon Cancer; single dose of 10 μM; read-out: Cell Growth Percent
SNB-19 = assay: NCI 60 cell line panel (SRB), SNB-19; details: Homo sapiens; SNB-19, CNS Cancer; single dose of 10 μM; read-out: Cell Growth Percent
NCI/ADR-RES = assay: NCI 60 cell line panel (SRB), NCI/ADR-RES; details: Homo sapiens, Ovarian Cancer, single dose of 10 μM, read-out: Cell Growth Percent
HT29 = assay: NCI 60 cell line panel (SRB), HT29; details: Homo sapiens, HT-29; HT29, Colon Cancer; single dose of 10 μM; read-out: Cell Growth Percent

Structure (SMILES) | activity at 10 µM (TK-10) | activity at 10 µM (NCI-H460) | activity at 10 µM (UO-31) | activity at 10 µM (A549/ATCC) | activity at 10 µM (EKVX) | activity at 10 µM (OVCAR-3) | activity at 10 µM (SN12C) | activity at 10 µM (T-47D) | activity at 10 µM (RPMI-8226) | activity at 10 µM (SK-OV-3) | activity at 10 µM (MDA-MB-468) | activity at 10 µM (LOX IMVI) | activity at 10 µM (MCF7) | activity at 10 µM (MALME-3M) | activity at 10 µM (IGROV1) | activity at 10 µM (BT-549) | activity at 10 µM (M14) | activity at 10 µM (NCI-H322M) | activity at 10 µM (KM12) | activity at 10 µM (MDA-MB-435) | further results
CCOC(=O)c1c(C)oc2ncnc(Nc3ccc(C(=O)Nc4cccc(Cl)c4)cc3)c12 [Compound 14a] | 102% | 100% | 89.5% | 95.3% | 102% | 110% | 94.1% | 98.2% | 94.6% | 112% | 90.9% | 93.1% | 90.6% | 122% | 105% | 87.6% | 95.2% | 99.7% | 93.8% | 106% | activity at 10 µM (SK-MEL-28): 105%; activity at 10 µM (786-0): 96.3%; activity at 10 µM (SF-295): 115%; activity at 10 µM (SK-MEL-2): 99.8%; activity at 10 µM (ACHN): 114%; activity at 10 µM (OVCAR-4): 98%; activity at 10 µM (CAKI-1): 99.2%; activity at 10 µM (UACC-62): 67.6%; activity at 10 µM (K-562): 87%; activity at 10 µM (OVCAR-8): 103%; activity at 10 µM (NCI-H226): 97%; activity at 10 µM (HCT-116): 85.5%; activity at 10 µM (SNB-19): 102%; activity at 10 µM (NCI/ADR-RES): 99.4%; activity at 10 µM (HT29): 83.6%
CCOC(=O)c1c(C)oc2ncnc(Nc3ccc(C(=O)Nc4ccc(OC)cc4)cc3)c12 [Compound 14b] | 102% | 97% | 94.3% | 93.3% | 91.1% | 110% | 103% | 91% | 91.3% | 94.1% | 102% | 93.2% | 95.6% | 120% | 108% | 61.9% | 101% | 112% | 96.1% | 106% | activity at 10 µM (SK-MEL-28): 95.2%; activity at 10 µM (786-0): 92.1%; activity at 10 µM (SF-295): 99.3%; activity at 10 µM (SK-MEL-2): 107%; activity at 10 µM (ACHN): 95.2%; activity at 10 µM (OVCAR-4): 95.6%; activity at 10 µM (CAKI-1): 96.6%; activity at 10 µM (UACC-62): 93.4%; activity at 10 µM (K-562): 107%; activity at 10 µM (OVCAR-8): 98.9%; activity at 10 µM (NCI-H226): 94.2%; activity at 10 µM (HCT-116): 85.1%; activity at 10 µM (SNB-19): 108%; activity at 10 µM (NCI/ADR-RES): 88.7%; activity at 10 µM (HT29): 81.1%
CCOC(=O)c1c(C)oc2ncnc(Nc3ccc(C(=O)NCCc4ccccc4)cc3)c12 [Compound 14e] | 102% | 82.9% | 97.3% | 56.6% | 90.3% | 97.2% | 99.3% | 65.1% | 84.5% | 85.5% | 90.7% | 75.2% | 78.6% | 89.5% | 102% | 67.3% | 81.2% | 92.9% | 89% | 87.5% | activity at 10 µM (SK-MEL-28): 87.8%; activity at 10 µM (786-0): 74.9%; activity at 10 µM (SF-295): 90.4%; activity at 10 µM (SK-MEL-2): 82.4%; activity at 10 µM (ACHN): 88.7%; activity at 10 µM (OVCAR-4): 45.5%; activity at 10 µM (CAKI-1): 92.5%; activity at 10 µM (UACC-62): 94.9%; activity at 10 µM (K-562): 88.9%; activity at 10 µM (OVCAR-8): 76.6%; activity at 10 µM (NCI-H226): 63.1%; activity at 10 µM (HCT-116): 64.7%; activity at 10 µM (SNB-19): 84%; activity at 10 µM (NCI/ADR-RES): 76.9%; activity at 10 µM (HT29): 58.8%
